Assay results reported in ChEMBL document CHEMBL5230155, “Recent contributions of quinolines to antimalarial and anticancer drug discovery research” (Eur J Med Chem, 2021).
Converted amounts (≈) assume the structure as drawn.

Key:
UMUC3 = experiment: Antiproliferative activity against human UMUC3 cells; type: functional, cell-based
MDA-MB-453 = experiment: Antiproliferative activity against human MDA-MB-453 cells; type: functional, cell-based
RT-4 = experiment: Antiproliferative activity against human RT-4 cells; type: functional, cell-based
RT-112 = experiment: Antiproliferative activity against human RT-112 cells; type: functional, cell-based
Tubulin = experiment: Inhibition of tubulin polymerization (unknown origin); type: protein-complex assay, Homo sapiens
T-24 = experiment: Antiproliferative activity against human T24 cells; type: functional, cell-based
SNU-423 = experiment: Antiproliferative activity against human SNU-423 cells; type: functional, cell-based
U-937 = experiment: Cytotoxicity against human U-937 cells; type: functional, cell-based
KG-1 = experiment: Cytotoxicity against human KG-1 cells; type: functional, cell-based
Raji = experiment: Cytotoxicity against human Raji cells; type: functional, cell-based
MDA-MB-231 = experiment: Cytotoxicity against human MDA-MB-231 cells; type: functional, cell-based
PC-3 [1] = experiment: Antiproliferative activity against human PC-3 cells; type: functional, cell-based
PC-3 [2] = experiment: Antitumor activity against human PC-3 cells xenografted in nude mouse assessed as cell growth inhibition at 50 mg/kg/day, ig administered for 21 days; type: functional; set-up: scale not given: the % may be the effect or the level left; details: time 21 day
PC-3 [3] = experiment: Antitumor activity against human PC-3 cells xenografted in nude mouse assessed as cell growth inhibition at 100 mg/kg/day, ig administered for 21 days; type: functional; set-up: scale not given: the % may be the effect or the level left; details: time 21 day
CWR22R = experiment: Antiproliferative activity against human 22Rv1 cells; type: functional, cell-based
LNCaP C4-2B = experiment: Antiproliferative activity against human LNCaP C4-2B cells; type: functional, cell-based
DU-145 = experiment: Antiproliferative activity against human DU-145 cells; type: functional, cell-based
HCT-116 = experiment: Cytotoxicity against human HCT-116 cells; type: functional, cell-based
SK-OV-3 = experiment: Antiproliferative activity against human SK-OV-3 cells; type: functional, cell-based
HepG2 = experiment: Cytotoxicity against human HepG2 cells; type: functional, cell-based
NCI-H460 = experiment: Antiproliferative activity against human NCI-H460 cells; type: functional, cell-based
MGC-803 = experiment: Antiproliferative activity against human MGC-803 cells
BEL-7404 tumor cell line = experiment: Antiproliferative activity against human BEL-7404 cells; type: functional, cell-based
G-361 = experiment: Antiproliferative activity against human G-361 cells; type: functional, cell-based; details: read-out: IC50
MCF7 = experiment: Antiproliferative activity against human MCF7 cells; type: functional, cell-based; details: Homo sapiens, MCF7
[4] = biological target: Prostaglandin G/H synthase 2 (Homo sapiens, UniProt P35354)
Description: Inhibition of COX-2 (unknown origin)

HeLa = experiment: Antitumor activity against human HeLa cells xenografted in mouse assessed as reduction in tumor weight at 20 mg/kg/day, ip for 3 weeks; type: functional; set-up: scale not given: the % may be the effect or the level left
[5] = Binding affinity to human nRNP
SMMC-7721 = experiment: Cytotoxicity against human SMMC-7721 cells; type: functional, cell-based
[6] = Cytotoxicity against human MRC5 cells; type: toxicity, cell-based
Huh-7 = experiment: Cytotoxicity against human Huh-7 cells; type: functional, cell-based
[7] = Cytotoxicity against human L02 cells; type: toxicity, cell-based

Sequence of Prostaglandin G/H synthase 2 (P35354 whole entry): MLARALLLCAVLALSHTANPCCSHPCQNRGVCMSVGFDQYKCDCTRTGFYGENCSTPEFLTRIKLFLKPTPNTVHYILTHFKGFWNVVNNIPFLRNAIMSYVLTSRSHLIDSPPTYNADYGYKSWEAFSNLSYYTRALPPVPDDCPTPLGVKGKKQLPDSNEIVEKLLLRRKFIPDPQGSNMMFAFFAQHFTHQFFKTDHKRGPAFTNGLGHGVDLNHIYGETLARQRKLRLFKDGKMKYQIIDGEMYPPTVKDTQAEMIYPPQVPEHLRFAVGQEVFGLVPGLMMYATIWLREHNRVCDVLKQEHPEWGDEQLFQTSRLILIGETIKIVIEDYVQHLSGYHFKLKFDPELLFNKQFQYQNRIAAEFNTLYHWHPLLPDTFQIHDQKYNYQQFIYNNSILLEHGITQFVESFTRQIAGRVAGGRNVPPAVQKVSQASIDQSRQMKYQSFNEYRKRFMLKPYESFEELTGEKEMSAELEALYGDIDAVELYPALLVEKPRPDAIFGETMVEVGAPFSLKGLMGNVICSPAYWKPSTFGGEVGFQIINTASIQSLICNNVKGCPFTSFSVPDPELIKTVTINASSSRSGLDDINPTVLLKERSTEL

SMILES: COc1cc(N(CCCSC(=S)N2CCN(C(C)=O)CC2)S(=O)(=O)c2cccc3cccnc23)cc(OC)c1OC
- IC50 (UMUC3): 900 nM
- IC50 (MDA-MB-453): 700 nM
- IC50 (RT-4): 1900 nM
- IC50 (RT-112): 700 nM
- IC50 (Tubulin): 2900 nM
- IC50 (T-24): 2600 nM
- IC50 (SNU-423): 700 nM

SMILES: O=C(Nc1ccc(NC(=O)c2ccc(Nc3ccnc4ccccc34)cc2)cc1)OCc1ccccc1
- IC50 (U-937): 300 nM
- IC50 (KG-1): 300 nM
- IC50 (Raji): 300 nM
- IC50 (MDA-MB-231): 300 nM
- IC50 (PC-3 [1]): 300 nM

SMILES: COc1cc(N(CCSC(=S)N2CCN(CCO)CC2)S(=O)(=O)c2cccc3cccnc23)cc(OC)c1OC
- Activity (PC-3 [2]): 35.6%
- Activity (PC-3 [3]): 61.4%
- IC50 (CWR22R): 670 nM
- IC50 (Tubulin): 4020 nM
- IC50 (PC-3 [1]): 430 nM
- IC50 (LNCaP C4-2B): 670 nM
- IC50 (DU-145): 670 nM

SMILES: O=c1[nH]cc(F)c(=O)[nH]1 [FLUOROURACIL]
- IC50 (MDA-MB-453): 7400 nM
- IC50 (RT-112): 7400 nM
- IC50 (HCT-116): 5.3 µg/mL (≈ 40.7 µM)
- IC50 (SK-OV-3): 26300 nM
- IC50 (HepG2; Homo sapiens, HepG2): 5.3 µg/mL
- IC50 (HepG2; hepg2): 26300 nM
- IC50 (NCI-H460): 26300 nM
- IC50 (MGC-803): 10400 nM
- IC50 (PC-3 [1]): 10400 nM
- IC50 (BEL-7404 tumor cell line): 26300 nM
- IC50 (SNU-423): 7400 nM

SMILES: COc1ccc2ccc(F)c(CC(=O)N/N=C/c3cccc(C(F)(F)F)c3)c2n1
- IC50 (G-361): 2070 nM
- IC50 (MCF7): 2070 nM
- IC50 [4]: 130 nM

SMILES: COc1ccc(C(=O)/C=C/c2cc(N3CCOCC3)c3cc([N+](=O)[O-])ccc3n2)cc1
- Activity (HeLa): 69.3%
- Kd [5]: 4600 nM

SMILES: COc1ccc(/C=N/NC(=O)c2ccc(Nc3ccnc4ccccc34)cc2)cc1OC
- IC50 (SMMC-7721): 6300 nM
- IC50 [6]: 16100 nM
- IC50 (HepG2; Homo sapiens, HepG2): 126000 nM
- IC50 (Huh-7): 6300 nM
- IC50 [7]: 16100 nM
